Test results as given in ChEMBL document CHEMBL4020719, “Synthesis and biological evaluation of novel indole-pyrimidine hybrids bearing morpholine and thiomorpholine moieties” (Eur J Med Chem, 2017).

Tests used:
MDA-MB-231 = assay: Antiproliferative activity against human MDA-MB-231 cells after 48 hrs by MTT assay; assay type: functional, cell-based; conditions: MDA-MB-231, 48 h
HeLa [1] = assay: cells; conditions: Homo sapiens, 48 h
MCF7 = assay: cells; conditions: Homo sapiens, MCF7, 48 h
HCT-116 [2] = assay: cells; conditions: Homo sapiens, HCT-116, 48 h
Sus scrofa = species: Sus scrofa; assay: Inhibition of pig brain tubulin polymerization at 10 uM by spectrophotometric analysis
HCT-116 [3] = assay: Potency index, ratio of CA-4 IC50 to compound IC50 for human HCT116 cells; assay type: functional
HEK293 = assay: Antiproliferative activity against HEK293 cells after 48 hrs by MTT assay; assay type: cell-based; conditions: Homo sapiens, HEK293, 48 h
HeLa [4] = assay: Cell cycle arrest in human HeLa cells assessed as accumulation at G0/G1 phase at 1.25 uM after 12 hrs by FACS analysis (reference value: 61.74%); assay type: functional
HeLa [5] = assay: Cell cycle arrest in human HeLa cells assessed as accumulation at S phase at 1.25 uM after 12 hrs by FACS analysis (reference value: 29.14%); assay type: functional
HeLa [6] = assay: Cell cycle arrest in human HeLa cells assessed as accumulation at G0/G1 phase at 2.5 uM after 12 hrs by FACS analysis (reference value: 61.74%); assay type: functional
HeLa [7] = assay: Cell cycle arrest in human HeLa cells assessed as accumulation at G2/M phase at 1.25 uM after 12 hrs by FACS analysis (reference value: 9.12%); assay type: functional
HeLa [8] = assay: Cell cycle arrest in human HeLa cells assessed as accumulation at G2/M phase at 2.5 uM after 12 hrs by FACS analysis (reference value: 9.12%); assay type: functional
HeLa [9] = assay: Cell cycle arrest in human HeLa cells assessed as accumulation at G0/G1 phase at 5 uM after 12 hrs by FACS analysis (reference value: 61.74%); assay type: functional
HeLa [10] = assay: Cell cycle arrest in human HeLa cells assessed as accumulation at G2/M phase after 12 hrs by FACS analysis; assay type: functional, cell-based
HeLa [11] = assay: Cell cycle arrest in human HeLa cells assessed as accumulation at S phase at 5 uM after 12 hrs by FACS analysis (reference value: 29.14%); assay type: functional
HeLa [12] = assay: Cell cycle arrest in human HeLa cells assessed as accumulation at G2/M phase at 5 uM after 12 hrs by FACS analysis (reference value: 9.12%); assay type: functional
HeLa [13] = assay: Cell cycle arrest in human HeLa cells assessed as accumulation at S phase at 2.5 uM after 12 hrs by FACS analysis (reference value: 29.14%); assay type: functional
[14] = Inhibition of pig brain tubulin polymerization by spectrophotometric analysis; parameters: species or system Sus scrofa

IC50 (MDA-MB-231) [µM]	IC50 (HeLa [1]) [µM]	IC50 (MCF7) [µM]	IC50 (HCT-116 [2]) [µM]	inhibition (Sus scrofa) [%]	Compound	further results
34.1	54.3	85.4	33.3		O=C(c1ccc(Br)cc1)c1[nH]c2ccccc2c1Nc1nc(N2CCOCC2)ncc1[N+](=O)[O-]	
92.6	82.5	89.2	55.8	23	O=C(c1ccccc1)c1[nH]c2ccccc2c1Nc1nc(N2CCOCC2)ncc1[N+](=O)[O-]	
> 100	> 100	> 100	> 100		O=C(c1ccc(Br)cc1)c1[nH]c2ccccc2c1Nc1nc(N2CCSCC2)ncc1[N+](=O)[O-]	
3.01	5.52	2.13	2.99	19	CCOC(=O)n1c(C(=O)c2ccc(OC)cc2)c(Nc2nc(N3CCOCC3)ncc2[N+](=O)[O-])c2ccccc21	Ratio IC50 (HCT-116 [3]): 2; IC50 (HEK293): > 100 µM
9.42	2.51	1.42	11.4	36	O=C(c1cccc(Br)c1)c1[nH]c2ccccc2c1Nc1nc(N2CCOCC2)ncc1[N+](=O)[O-]	Activity (HeLa [4]): 53.32%; Activity (HeLa [5]): 34.05%; Activity (HeLa [6]): 15.31%; Activity (HeLa [7]): 12.63%; Activity (HeLa [8]): 58.34%; Activity (HeLa [9]): 5.02%; Activity (HeLa [10]): Dose-dependent effect; Activity (HeLa [11]): 6.4%; IC50 (HEK293): 10.1 µM; Activity (HeLa [12]): 88.58%; Activity (HeLa [13]): 26.35%
> 100	47.1	35	24.4	14	COc1ccc(C(=O)c2[nH]c3cc(Cl)ccc3c2Nc2nc(N3CCOCC3)ncc2[N+](=O)[O-])cc1	
10.3	4.04	0.29	9.48	42	O=C(c1ccc(-c2ccccc2)cc1)c1[nH]c2ccccc2c1Nc1nc(N2CCOCC2)ncc1[N+](=O)[O-]	IC50 [14]: 19.3 µM; IC50 (HEK293): 78.6 µM
58.7	16.6	42.7	> 100		O=C(c1ccc(-c2ccccc2)cc1)c1[nH]c2cc(Cl)ccc2c1Nc1nc(N2CCOCC2)ncc1[N+](=O)[O-]	
8.69	4.32	57.1	6.4	14	COc1ccc(C(=O)c2[nH]c3ccccc3c2Nc2nc(N3CCOCC3)ncc2[N+](=O)[O-])cc1	IC50 (HEK293): 14.8 µM
35.8	> 100	78.4	80.6		CCOC(=O)n1c(C(=O)c2ccccc2)c(Nc2nc(N3CCOCC3)ncc2[N+](=O)[O-])c2ccc(Cl)cc21	
> 100	> 100	> 100	> 100		Cc1ccc2c(Nc3nc(N4CCOCC4)ncc3[N+](=O)[O-])c(C(=O)c3ccc(Br)cc3)[nH]c2c1	
> 100	> 100	> 100	> 100	9	O=C(c1ccccc1)c1[nH]c2cc(Cl)ccc2c1Nc1nc(N2CCOCC2)ncc1[N+](=O)[O-]	
> 100	> 100	> 100	> 100		COc1ccc(C(=O)c2[nH]c3ccccc3c2Nc2nc(N3CCSCC3)ncc2[N+](=O)[O-])cc1	
> 100	> 100	> 100	> 100	2	O=C(c1ccccc1)c1[nH]c2ccccc2c1Nc1nc(N2CCSCC2)ncc1[N+](=O)[O-]	
89.4	49.6	89.4	73.5		O=C(c1[nH]c2ccccc2c1Nc1nc(N2CCOCC2)ncc1[N+](=O)[O-])C1CC1	
> 100	7.46	60.4	> 100		Cc1ccc2c(Nc3nc(N4CCOCC4)ncc3[N+](=O)[O-])c(C(=O)c3ccc(-c4ccccc4)cc3)[nH]c2c1	
5.01	19.9	13.9	17.4	47	CN1CCN(c2ncc([N+](=O)[O-])c(Nc3c(C(=O)c4cccs4)[nH]c4cc(Cl)ccc34)n2)CC1	IC50 (HEK293): > 100 µM
> 100	94.7	69.4	> 100	19	O=C(c1cccs1)c1[nH]c2cc(Cl)ccc2c1Nc1nc(N2CCOCC2)ncc1[N+](=O)[O-]	
> 100	> 100	98.7	> 100		Cc1ccc2c(Nc3nc(N4CCOCC4)ncc3[N+](=O)[O-])c(C(=O)c3ccc(Cl)cc3)[nH]c2c1	
> 100	> 100	83.7	> 100		O=C(c1ccc(Cl)cc1)c1[nH]c2cc(Cl)ccc2c1Nc1nc(N2CCOCC2)ncc1[N+](=O)[O-]	
76.3	47.1	56.8	80.6		Cc1ccc2c(Nc3nc(N4CCOCC4)ncc3[N+](=O)[O-])c(C(=O)c3ccccc3)[nH]c2c1	
89.4	90.5	> 100	44		COc1ccc(C(=O)c2[nH]c3cc(C)ccc3c2Nc2nc(N3CCOCC3)ncc2[N+](=O)[O-])cc1	
93.7	> 100	> 100	39.1		Cc1ccc2c(Nc3nc(N4CCOCC4)ncc3[N+](=O)[O-])c(C(=O)c3cccs3)[nH]c2c1	

Compound	IC50 (MDA-MB-231) [µM]	IC50 (HeLa [1]) [µM]	IC50 (MCF7) [µM]	IC50 (HCT-116 [2]) [µM]	inhibition (Sus scrofa) [%]	further results
COc1ccc(/C=C\c2cc(OC)c(OC)c(OC)c2)cc1O [COMBRETASTATIN A4]	270	0.23	0.041	6.1	80	
